Reference: US20240139167A1, “LYSOSOME-ASSOCIATED MEMBRANE PROTEIN TARGETING COMPOUNDS AND USES THEREOF” (HADASIT MEDICAL RESEARCH SERVICES AND DEVELOPMENT LTD., priority 2021, published 2024)

Tests used:
[1] = test system: Gbe^ys/ys mice; assay: Survival, weight and motor phenotypes in APBD mouse model; format: in vivo
Text: Pictures of 7-months old Gbe^ys/ys mice treated with vehicle (1L), or Compound 1 (1M) for 3 months prior to photography.
The presented experiments combine in vivo, ex vivo and in vitro studies on the therapeutic potential of the newly discovered compound Compound 1 for treating APBD. In the in vivo section, the inventors have tested Compound 1 for its capacity to correct disease phenotypes in Gbe^ys/ys female mice. Two arms, 5% DMSO vehicle and Compound 1, of initially n=7-9 animals each were used. […] Additional open field, gait, and extension reflex tests (FIGS. 1E-1H) also included a C57BL/6 wild type control arm of n=9 animals. Animals were excluded from the experiment if weight was reduced by >10% between sequential weightings or by >20% from initiation. […] 150 μL of 250 mg/kg Compound 1 in 5% DMSO were injected twice a week. Vehicle control was 5% DMSO. Injection was intravenous (IV) for the first month, followed by subcutaneous (SC) injection due to lack of injection space and scaring in animal tails. The inventors initiated the injections either at the age of 4 months, two months prior to disease onset, assuming a preferred prophylactic effect, or at the 6 months age of onset for comparison. Treatment was continued until the age of 10 months. The effect of Compound 1 on various motor parameters was tested approximately every two weeks. At the end of these experiments, some of the mice were sacrificed by cervical dislocation and tissues from n=2 wild type, n=7 Gbe^ys/ys vehicle-treated, and n=9 Compound 1-treated mice were collected, sectioned, fixed, and stained for diastase-resistant PG by PAS (FIGS. 2A-2C). Tissue glycogen was determined biochemically as described. In addition, Compound 1 pharmacokinetic profile was determined by LC-MS/MS in serum and tissues derived from n=3 mice/time point. Experimenters were blinded to treatment allocation.
In FIGS. 1A-1M the significance of overall trends was tested by Two-way ANOVA with repeated measures. […] The Bonferroni test was used to compare between Compound 1 and vehicle in a way which corrects for the multiple comparisons and is therefore very robust (since the threshold for determining significance at each time point is reduced in a manner inversely proportional to the number of comparisons). […] In FIGS. 4D and 6E the inventors used One Way ANOVA with Sidak's post-hoc correction for multiple comparisons. Other statistical tests used were Student t-tests.

[2] = Pharmacokinetics, tissue levels by LC-MS/MS; format: in vivo, mice; conditions: 250 mg/kg subcutaneous
Text: FIGS. 2A-2C include images and graphs of histopathological effects of Compound 1 and its pharmacokinetics: right panel present images of indicated tissues of sacrificed mice and stained for PG (arrows) with PAS following treatment with diastase; left panel, presents bar graphs quantifying PAS staining, based on analysis of 4 sections from each tissue in n=2 wild type, n=7 Gbe^ys/ys vehicle-treated, and n=9 Compound 1-treated mice (2A); bar graph quantifying total glycogen in the respective tissues (2B); graph of Compound 1pharmacokinetics (2C); 9 months old Gbe^ys/ys mice were SC-injected with 150 μL of Compound 1 at 250 mg/kg. Mice were sacrificed 30-, 60-, 90-, and 210-min post injection and the indicated tissues were removed, as well as 200 μL of serum drawn. […] Shown are means and SEM of results obtained from n=3 mice at each time point.
For pharmacokinetic analysis, 100 μL serum as well as brain, kidney, hind limb quad muscle, heart, liver, and spleen tissues were collected, homogenized, and extracted with acetonitrile following established guidelines. Calibration curves were made with 0, 1, 10, 100, and 1,000 ng/ml Compound 1 in 1 mg/ml solutions of 4-tert-butyl-2-(4H-1,2,4-triazol-4-yl)phenol (ChemBridge) as internal standard (IS). Tissue samples were then dissolved in 1 mg/ml IS solutions and spiked with 0-1,000 ng/ml Compound 1 to generate standard curves from which tissue levels of Compound 1 were determined. Samples were analyzed by the LC-MS/MS Sciex Triple Quad™ 5500 mass spectrometer.
Pharmacokinetic analysis is instrumental for explaining the effects of Compound 1 in-situ regardless of its innate capacity to modify polyglucosans in isolated cells. The reason for that is that timing of arrival, distribution and stability in the tissue are key determinants of the in-situ activity of any pharmacological agent. To determine the distribution and kinetic parameters of Compound 1 in different tissues, the inventors have treated Gbe^ys/ys mice with 250 mg/kg Compound 1 via subcutaneous injection, as done in the efficacy experiments. Mice were then sacrificed 0, 30-, 60-, 90-, and 210-min post administration and 100 μL serum as well as brain, kidney, hind limb skeletal muscle, heart, liver, and spleen tissues were collected, homogenized, extracted and their Compound 1 levels were analyzed by liquid chromatography tandem mass spectrometry (LC-MS/MS). The differential effects of Compound 1 on glycogen and polyglucosan content in the different tissues match its differential distribution and dwell time in each respective tissue. […] However, those levels persist up until 60 minutes post injection, which might account for the Compound 1-mediated reduction in polyglucosan, and glycogen content observed in these tissues. […] Based on the sampling times used, time to C. was 30 min for all the tissues studied indicating similar rate of absorption to all these tissues. The highest C. is observed in liver and kidney matching their well-established rapid perfusion.

## COCCN(Cc1sccc1C)C(=O)c1cc(C)nc(O)c1 [Compound 1]
[1]; 250 mg/kg twice a week from age 4 months
  animal weight over time: mitigated the decline in animal weight over time
[1]; 250 mg/kg twice a week from age 4 months, vs 5% DMSO vehicle
  animal survival: significantly improved animal survival
[1]; administered after disease onset at the age 6 months
  ameliorating effect on open field, weight and overall extension reflex: ameliorating effect did not take place
[1]; administered at onset (6 months), at the age of 9 months
  Extension reflex: only parameter improved by the compound from the advanced stage of the disease
[1]; from 8 months, 134 days post injection
  open field performance: improved open field performance
[1]; mouse age of 9 months
  gait (stride length): improved gait, or increased stride length
[1]; throughout the study period, p<0.05
  overall extension reflex: significantly improved
[2]
  C. in liver and kidney, rank among tissues: highest
  C. in skeletal quadriceps muscle, rank among tissues: lowest
  accumulation in muscle: negligible accumulation
  levels in heart and brain: intermediate levels
  persistence of levels in heart and brain post injection: ≤ 60 min
[2]; all the tissues studied
  time to C.: 30 min
[2]; mouse, liver, sc, Gbe^ys/ys mice
  half-life: > 3 h
